Results on one molecule are retold here after US20240226057A1, “NEW USE OF MONENSIN” (MAST PHARMA AB, priority 2021, published 2024).

In series [1] the test system is immature human mast cell line HMC-1. The experiment in a line: Cell death assessment in HMC-1 cells. The series is classed as cell-based. The following applies: lower potency than for BMMCs and PCMCs. As to the method:
(§1) To assess cell death, cells were stained with Annexin V and either DRAQ7™ or Via-Probe™ Red Nucleic Acid Stain and analyzed by flow cytometry. To probe pH in acidic organelles, cells were incubated with LysoSensor Blue DND-167, followed by flow cytometry. The relative intracellular pH changes were assessed using the cell-permeable pH-sensitive fluorescent indicator (BCFL-AM). Intracellular calcium changes were assessed using Fluo-4/AM.
Next, the inventors assessed if monensin is cytotoxic for human mast cells by assessing its effect on immature human mast cell lines (LUVA, HMC-1) and on fully mature skin mast cells (hskinMC).

In the next series the test system is mast cells. The following applies: cited from earlier work.
Series [2] relates to mast cells populating the tracheal tissue. The experiment in a line: Histological analysis of tracheal segments (astra blue). Also on record: species or system guinea pig. The settings on record: monensin-treated tracheal tissue. Here is the method:
Double staining of control (D) and monensin-treated tracheal tissue (E, F) was performed with astra blue.

The test system of series [3] is human primary airway epithelial cells (HSAEC). The experiment in a line: Cytotoxicity against human primary airway epithelial cells (PrestoBlue). The series is classed as cell-based. The following applies: 0.01-10 μM for 48 h; much less than on mast cells.
For series [4], the system named is mouse peritoneal cell-derived mast cells (PCMCs). The series can be described thus: Annexin V/DRAQ7 cell death assessment in PCMCs. The settings on record: 24 h incubation. It is filed as cell-based. As to the method: as §1
To assess whether monensin also induces cell death of fully mature mast cells, mouse peritoneal cell-derived mast cells (PCMCs) were developed and their sensitivity to monensin was assessed. […] In fact, these mature mast cells were even more sensitive to monensin than were the BMMCs, with significant cell death seen at concentrations down to 10 nM (24 h incubation).

The next series concerns peritoneal lymphocytes. The series can be described thus: Mouse peritoneal lavage cells, viability by flow cytometry: lymphocytes. The series is classed as cell-based. The following applies: 0-10 μM for 24 h. Here is the method:
(§2) Mouse peritoneal cells were treated with monensin and stained with labeled antibodies against CD117 (2B8), FcεRI (MAR-1), Siglec-F (E50-2440), CD11b (M1/70), F4/80 (BM8), CD3 (17A2), CD4 (GK1.5), CD8b (eBioH35-17.2) and CD19 (ebuo1D3).
as §1
(§3) To this end, monensin was added to cells recovered by peritoneal lavage of mice, followed by flow cytometry analysis to assess the effects of monensin on the various cell populations of the peritoneum.
(§4) Peritoneal cell populations were recovered by peritoneal lavage of mice. The gating strategy to identify viable cells and to identify macrophages, lymphocytes, MCs and eosinophils within the peritoneal cell population is shown in (A). […] The panels show quantification of viable (Annexin V^−/Via-Probe^−) cells; in the MC (B), lymphocyte (C), macrophage (D) and eosinophil (E) populations (n=3).
A general note: A flow cytometer gives signals particle by particle.

For the next series, the system named is human skin MCs. The experiment in a line: Granule acidity, LysoSensor Blue DND-167 staining of human skin MCs. The series is classed as cell-based. The following applies: 0-10 μM for 30 min. Here is the method:
as §1
BMMCs were treated with 1 μM monensin for 12 and 24 h, followed by Annexin V/DRAQ7 staining to measure cell death. MCs were gated into cells having high and low maturity, as assessed by SSC analysis for granularity (A). The right panels depict the quantification of apoptotic (Annexin V^+/DRAQ7^−) and necrotic (Annexin V^+/DRAQ7^+) cell death in the respective populations (n=3). (B) BMMCs (0.5×10^6 cells) were developed from WT (FIG. 4B) or serglycin^−/− (SG^−/−) mice (data not shown) and were treated with monensin 0-10 μM for 24 h, followed by cell death assessment (Annexin V/DRAQ7 staining). […] To further assess the impact of the secretory granules on monensin-induced cell death, it was evaluated whether the absence of serglycin, a granule-restricted proteoglycan, affects the response to monensin. […]

A further series concerns mMCP-6. The series can be described thus: Translocation of granule protease mMCP-6 into the cytosolic fraction. It is filed as cell-based.
In series [5] the test system is Bone marrow-derived mast cells (BMMCs). The series can be described thus: BMMC viability, screening and kinetic analysis (Presto Blue / resazurin reduction). For orientation: The colour change of resazurin is a common sign of viable cells or microbes.
Series [6] shares this test system. The experiment in a line: Trypan blue positivity of treated mast cells. The series is classed as cell-based, mouse.
The subject of the next series is human blood monocytes. The experiment in a line: Human peripheral blood-derived cells, viability: monocytes. It is filed as cell-based. As to the method:
(§5) Mononuclear cells and granulocytes were purified from heparinized human peripheral blood. Cells were stained with antibodies against CD4 (RPA-T4), CD8 (RPA-T8), CD19 (HIB19) and CD14 (M5E2) or CCR3 (5E8) and CD15 (W6D3) for analysis of mononuclear cells and granulocytes, respectively.
as §1
(§6) To extend these findings into the corresponding human leukocyte populations, the inventors assessed the effects of monensin on eosinophils (B), human blood monocytes (C), lymphocytes (D), and neutrophils (E).

Another series relates to peritoneal eosinophils. The experiment in a line: Mouse peritoneal lavage cells, viability by flow cytometry: eosinophils. It is filed as cell-based. The following applies: 0-10 μM for 24 h. Here is the method:
as §2, §1, §3, §4

The subject of a further series is human lymphocytes. The series can be described thus: Human peripheral blood-derived cells, viability: lymphocytes. The series is classed as cell-based. As to the method:
as §5, §1, §6

A further series relates to human neutrophils. The experiment in a line: Human peripheral blood-derived cells, viability: neutrophils. The series is classed as cell-based. As to the method:
as §5, §1, §6

A value given as a limit tells only on which side of the number the result lay.

For the molecule `CC[C@]1([C@H]2O[C@H]([C@@H]3O[C@](O)(CO)[C@@H](C)C[C@H]3C)C[C@H]2C)CC[C@@H]([C@@]2(C)CC[C@@]3(C[C@@H](O)[C@H](C)[C@H]([C@H](C)[C@H](OC)[C@H](C)C(=O)O)O3)O2)O1` [Monensin, 4-[2-[5-ethyl-5-[5-[6-hydroxy-6-(hydroxymethyl)-3,5-dimethyl-oxan-2-yl]-3-methyl-oxolan-2-yl]oxolan-2-yl]-9-hydroxy-2,8-dimethyl-1,6-dioxaspiro[4.5]dec7-yl]-3-methoxy-2-methyl-pentanoic acid], the “Cytotoxicity to HMC-1 cells” value in series [1] is given as “cytotoxic”. In addition, the “Histamine release on longer incubation” value with mast cells (5 hr incubation with mast cells) was “potent secretagogue”. Besides, the “Concentrations able to prevent histamine release from mast cells stimulated by secretagogues” value with mast cells (secretagogues such as calcium ionophore A23187) is 0.6 to 150 µg/mL. In addition, in series [2], the “Proportion of mast cells having a defined nucleus” value is “profound reduction”. Moreover, the “Concentration from which a cytotoxic effect was exhibited, HSAEC” value in series [3] is no less than 1000 nM. In addition, the “Concentrations with significant cell death in PCMCs (down to)” value in series [4] was no less than 10 nM. Also, the “Response of peritoneal lymphocytes” value in the series with peritoneal lymphocytes is “resistant”. Besides, in the series on human skin MCs, the “LysoSensor Blue DND-167 staining, human skin MCs” value is “marked reduction”. Besides, the “Translocation of mMCP-6 into the cytosolic fraction” value in the series on mMCP-6 is “profound translocation”. The “Selectivity of cytotoxic effect, mast cells versus HFL-1, HSAEC, HEK-293” value in series [5] is “high and selective cytotoxic effect on mast cells”. Moreover, in [5] (0.01-10 μM for 24, 48 or 72 h), the “Potency against BMMCs compared with the other drugs” value was “markedly more potent than any of the other three drugs”. Further, in series [5] (0.01-10 μM for 24, 48 or 72 h, especially after prolonged (72 h) incubation), the “Concentrations showing considerable toxicity to BMMCs (down to)” value is given as no less than 10 nM. Moreover, the “Viability % (TB) (10 μM)” value in [6] is listed as 12%. Moreover, the “Viability of human monocytes” value in the series with human blood monocytes is given as “no reduction”. Moreover, the “Concentrations with substantial cell death of peritoneal eosinophils (down to)” value in the series on peritoneal eosinophils is listed as no less than 10 nM. The “Viability of human lymphocytes” value in the series with human lymphocytes was “no reduction”. In addition, the “Response of human neutrophils” value in the series with human neutrophils is listed as “only marginally affected”.
